Measured values reported in US20260347372A1, “SMALL MOLECULE INHIBITORS OF KRAS G12D MUTANT” (MERCK SHARP & DOHME LLC, priority 2023, published 2026).

Tests used:
AsPC-1 cells = biological target: T1, AsPC-1 cells (Homo sapiens, UniProt P01116, G12D); assay: Cellular phospho-ERK assay, AsPC-1 cells (KRAS G12D); type: cell-based; settings: 2 hours, read-out: AsPC1 pERK IC50
T1 construct: p-ERK/total ERK AlphaSureFire read-out
In short: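 PANC08.13 or AsPC-1 cells (homozygous KRAS G12D) were seeded overnight, then treated for 2 h at 37 °C with a 10-point 1:3 titration from 30 μM. Lysates were assayed by AlphaLISA SureFire for p-ERK and total ERK. IC50 came from a 4-parameter fit of the p-ERK/total ERK ratio.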

KRAS G12V = KRAS G12V (Homo sapiens, UniProt P01116, G12V); assay: SOS-catalyzed nucleotide exchange assay, KRAS G12V (Procedure A); type: biochemical; settings: GNE
In short: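 Biotinylated KRAS G12V was loaded with Bodipy-GDP alongside Terbium-streptavidin to form a TR-FRET complex, which was preincubated with compounds for 60 minutes in 384-well plates. Human SOS protein and unlabeled GTP were then added for 90 minutes, giving final concentrations of 1.25 nM KRAS-G12V, 160 nM SOS and 3 mM GTP. The 520/495 nm emission ratio was read on an Envision.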

KRAS WT = KRAS WT (Homo sapiens, UniProt P01116); assay: SOS-catalyzed nucleotide exchange assay, KRAS WT (Procedure A); type: biochemical; settings: GNE
In short: (§1)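 Compounds were preincubated 60 min with a biotinylated RAS·Bodipy-GDP/Tb-streptavidin TR-FRET complex, and exchange was started with human SOS plus 3 mM GTP at RT. RAS/SOS: G12C 3 nM/40 nM, WT and G12D 1 nM/40 nM, all 60 min; G13D 1.25 nM/0 nM, 30 min. 520/495 ratio normalized to DMSO and saturating inhibitor, four-parameter fit.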

KRAS G12D = KRAS G12D (Homo sapiens, UniProt P01116, G12D); assay: SOS-catalyzed nucleotide exchange assay, KRAS G12D (Procedure A); type: biochemical; settings: guanine nucleotide exchange (GNE)
In short: as §1

Sequence of KRAS WT (P01116 with tags, fused parts or gaps isoform P01116-2): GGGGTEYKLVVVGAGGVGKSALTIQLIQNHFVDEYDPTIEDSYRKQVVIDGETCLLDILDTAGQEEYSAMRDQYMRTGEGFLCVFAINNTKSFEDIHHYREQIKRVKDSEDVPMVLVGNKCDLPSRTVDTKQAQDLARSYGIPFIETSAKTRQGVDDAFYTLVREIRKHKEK
Sequence of KRAS G12D (P01116 with tags, fused parts or gaps isoform P01116-2 G12D): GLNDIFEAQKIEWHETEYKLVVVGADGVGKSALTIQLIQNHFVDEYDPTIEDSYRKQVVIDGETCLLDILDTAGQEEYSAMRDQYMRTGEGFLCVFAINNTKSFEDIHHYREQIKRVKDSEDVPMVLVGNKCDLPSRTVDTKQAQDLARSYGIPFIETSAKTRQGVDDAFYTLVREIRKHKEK
Sequence of KRAS G12V (P01116 with tags, fused parts or gaps isoform P01116-2 G12V): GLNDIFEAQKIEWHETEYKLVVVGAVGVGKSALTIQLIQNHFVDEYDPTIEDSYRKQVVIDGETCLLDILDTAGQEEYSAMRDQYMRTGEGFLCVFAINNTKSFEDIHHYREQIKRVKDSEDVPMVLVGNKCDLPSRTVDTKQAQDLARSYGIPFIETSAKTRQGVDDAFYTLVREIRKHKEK
T1 sequence (P01116 1-188 isoform P01116-2 G12D): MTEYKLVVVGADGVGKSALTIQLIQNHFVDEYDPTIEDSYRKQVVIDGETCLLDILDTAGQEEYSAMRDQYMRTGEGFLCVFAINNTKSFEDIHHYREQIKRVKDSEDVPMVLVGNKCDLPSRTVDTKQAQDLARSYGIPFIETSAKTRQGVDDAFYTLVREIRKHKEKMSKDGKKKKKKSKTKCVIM

IC50 (AsPC-1 cells) | IC50 (KRAS G12V) | IC50 (KRAS WT) | IC50 (KRAS G12D) | SMILES
8.18 nM | 48.8 nM | 32.8 nM | 1.67 nM | C#Cc1c(F)ccc2cc3[nH]ncc3c(-c3nccc4c3sc3nc(OC[C@@]56CCCN5C/C(=C\F)C6)nc(N5C[C@H]6CC[C@@H](C5)N6)c34)c12 [Ex-89, 4-((1R,5S)-3,8-diazabicyclo[3.2.1]octan-3-yl)-8-(5-ethynyl-6-fluoro-1H-benzo[f]indazol-4-yl)-2-(((S,Z)-2-(fluoromethylene)tetrahydro-1H-pyrrolizin-7a(5H)-yl)methoxy)pyrido[4′,3′:4,5]thieno[2,3-d]pyrimidine]
3310 nM | > 11100 nM | > 11100 nM | 187 nM | C#Cc1c(F)ccc2cc3[nH]ncc3c(-c3nccc4c3sc3nc(OCC5(C#N)CCOCC5)nc(N5C[C@H]6CC[C@@H](C5)N6)c34)c12 [Ex-90, 4-(((4-((1R,5S)-3,8-diazabicyclo[3.2.1]octan-3-yl)-8-(5-ethynyl-6-fluoro-1H-benzo[f]indazol-4-yl)pyrido[4′,3′:4,5]thie-no[2,3-d]pyrimidin-2-yl)oxy)methyl)tetrahy-dro-2H-pyran-4-carbonitrile]
5030 nM | > 11100 nM | > 11100 nM | 50.6 nM | C#Cc1c(F)ccc2cc3[nH]ncc3c(-c3nccc4c3sc3nc(OCC5(C(=O)NC)CC5)nc(N5C[C@H]6CC[C@@H](C5)N6)c34)c12 [Ex-91, 1-(((4-((1R,5S)-3,8-diazabicyclo[3.2.1]octan-3-yl)-8-(5-ethynyl-6-fluoro-1H-benzo[f]indazol-4-yl)pyrido[4′,3′:4,5]thie-no[2,3-d]pyrimidin-2-yl)oxy)methyl)-N-methylcyclopropane-1-carboxamide]
18.1 nM | 88.2 nM | 57.4 nM | 1.99 nM | C#Cc1c(F)ccc2cc3[nH]ncc3c(-c3nccc4c3sc3nc(OCC56CCCC5N(C)CCC6)nc(N5C[C@H]6CC[C@@H](C5)N6)c34)c12 (stereo partly drawn) [Ex-92, 4-((1R,5S)-3,8-diazabicyclo[3.2.1]octan-3-yl)-8-(5-ethynyl-6-fluoro-1H-benzo[f]indazol-4-yl)-2-((1-methyloctahydro-4aH-cyclopenta[b]pyridin-4a-yl)methoxy)pyrido[4′, 3′:4,5]thieno[2,3-d]pyrimidine]
18 nM | 94.3 nM | 72.9 nM | 1.16 nM | C#Cc1c(F)ccc2cc3[nH]ncc3c(-c3nccc4c3sc3nc(OCC56CCCN5CC(=C(F)F)C6)nc(N5C[C@H]6CC[C@@H](C5)N6)c34)c12 (stereo partly drawn) [Ex-93, 4-((1R,5S)-3,8-diazabicyclo[3.2.1]octan-3-yl)-2-(((S)-2-(difluoromethylene)tetra-hydro-1H-pyrrolizin-7a(5H)-yl)methoxy)-8-(5-ethynyl-6-fluoro-1H-benzo[f]indazol-4-yl)pyrido[4′,3′:4,5] thie-no[2,3-d]pyrimidine]
85.9 nM | 1950 nM | 847 nM | 2.99 nM | C#Cc1c(F)ccc2cc3[nH]ncc3c(-c3nccc4c3sc3nc(OCC5(CN6CC[C@@H](F)C6)CC5)nc(N5C[C@H]6CC[C@@H](C5)N6)c34)c12 [Ex-94, 4-((1R,5S)-3,8-diazabicyclo[3.2.1]octan-3-yl)-8-(5-ethynyl-6-fluoro-1H-benzo[f]indazol-4-yl)-2-((1-(((R)-3-fluoropyrrolidin-1-yl)methyl)cyclopropyl)methoxy)pyrido[4′,3′: 4,5]thieno[2,3-d]pyrimidine]
180 nM | 6760 nM | 2800 nM | 5.29 nM | C#Cc1c(F)ccc2cc3[nH]ncc3c(-c3nccc4c3sc3nc(OCC5(CN(C)C)COC5)nc(N5C[C@H]6CC[C@@H](C5)N6)c34)c12 [Ex-95, 1-(3-(((4-((1R,5S)-3,8-diazabicyclo[3.2.1]octan-3-yl)-8-(5-ethynyl-6-fluoro-1H-benzo[f]indazol-4-yl)pyrido[4′,3′:4,5]thie-no[2,3-d]pyrimidin-2-yl)oxy)methyl)oxetan-3-yl)-N,N-dimethylmethanamine]
22.8 nM | 248 nM | 259 nM | 1.62 nM | C#Cc1c(F)ccc2cc3[nH]ncc3c(-c3nccc4c3sc3nc(OC[C@]5(CN(C)C)CC5(F)F)nc(N5C[C@H]6CC[C@@H](C5)N6)c34)c12 [Ex-96, 1-((1R)-1-(((4-((1R,5S)-3,8-diazabicyclo[3.2.1]octan-3-yl)-8-(5-ethynyl-6-fluoro-1H-benzo[f]indazol-4-yl)pyrido[4′,3′:4,5]thie-no[2,3-d]pyrimidin-2-yl)oxy)methyl)-2,2-difluorocyclopropyl)-N,N-dimethylmethanamine]
210 nM | 3130 nM | 1290 nM | 3 nM | C#Cc1c(F)ccc2cc3[nH]ncc3c(-c3nccc4c3sc3nc(OC[C@@]56CCC7(CC7)N5C[C@H](F)C6)nc(N5C[C@H]6CC[C@@H](C5)N6)c34)c12 [Ex-97, 4-((1R,5S)-3,8-diazabicyclo[3.2.1]octan-3-yl)-8-(5-ethynyl-6-fluoro-1H-benzo[f]indazol-4-yl)-2-(((6′R,7a′S)-6′-fluorotetrahydrospiro[cy-clopropane-1,3′-pyrrolizin]-7a′(5'H)-yl)methoxy)pyrido[4′, 3′:4,5]thieno[2,3-d]pyrimidine]
362 nM | > 11100 nM | 6360 nM | 6.92 nM | C#Cc1c(F)ccc2cc3[nH]ncc3c(-c3nccc4c3sc3nc(OC[C@]5(CN6CCC7(CCC7)CC6)CC5(F)F)nc(N5C[C@H]6CC[C@@H](C5)N6)c34)c12 [Ex-98, 2-(((R)-1-((7-azaspiro[3.5]nonan-7-yl)methyl)-2,2-difluorocyclopropyl)meth-oxy)-4-((1R,5S)-3,8-diazabicyclo[3.2.1]octan-3-yl)-8-(5-ethynyl-6-fluoro-1H-benzo[f]indazol-4-yl)pyrido[4′,3′:4,5]thie-no[2,3-d]pyrimidine]
59.9 nM | 2740 nM | 1080 nM | 1.53 nM | C#Cc1c(F)ccc2cc3[nH]ncc3c(-c3nccc4c3sc3nc(OC[C@]5(CN6CC7(CC(F)C7)C6)CC5(F)F)nc(N5C[C@H]6CC[C@@H](C5)N6)c34)c12 [Ex-99, 4-((1R,5S)-3,8-diazabicyclo[3.2.1]octan-3-yl)-2-(((R)-2,2-difluoro-1-((6-fluoro-2-azaspiro[3.3]heptan-2-yl)methyl)cyclopropyl)methoxy)-8-(5-ethynyl-6-fluoro-1H-benzo[f]indazol-4-yl)pyrido[4′,3′:4,5]thie-no[2,3-d]pyrimidine]
753 nM | > 11100 nM | > 11100 nM | 8.52 nM | C#Cc1c(F)ccc2cc3[nH]ncc3c(-c3nccc4c3sc3nc(OC[C@]5(CN6CCC7(CCCCC7)CC6)CC5(F)F)nc(N5C[C@H]6CC[C@@H](C5)N6)c34)c12 [Ex-100, 2-(((R)-1-((3-azaspiro[5.5]undecan-3-yl)methyl)-2,2-difluorocyclopropyl)meth-oxy)-4-((1R,5S)-3,8-diazabicyclo[3.2.1]octan-3-yl)-8-(5-ethynyl-6-fluoro-1H-benzo[f]indazol-4-yl)pyrido [4′,3′:4,5]thie-no[2,3-d]pyrimidine]
1210 nM | > 11100 nM | > 11100 nM | 33.1 nM | C#Cc1c(F)ccc2cc3[nH]ncc3c(-c3nccc4c3sc3nc(OC[C@]5(CN6CCN(CC(F)(F)F)CC6)CC5(F)F)nc(N5C[C@H]6CC[C@@H](C5)N6)c34)c12 [Ex-101, 4-((1R,5S)-3,8-diazabicyclo[3.2.1]octan-3-yl)-2-(((R)-2,2-difluoro-1-((4-(2,2,2-trifluoroethyl)piperazin-1-yl)methyl)cyclopropyl)methoxy)-8-(5-ethynyl-6-fluoro-1H-benzo[f]indazol-4-yl)pyrido[4′,3′:4,5]thie-no[2,3-d]pyrimidine]
2770 nM | > 11100 nM | > 11100 nM | 12.3 nM | C#Cc1c(F)ccc2cc3[nH]ncc3c(-c3nccc4c3sc3nc(OC[C@]5(CN6CCN(C(C)=O)CC6)CC5(F)F)nc(N5C[C@H]6CC[C@@H](C5)N6)c34)c12 [Ex-102, 1-(4-(((1R)-1-(((4-((1R,5S)-3,8-diazabicyclo[3.2.1]octan-3-yl)-8-(5-ethynyl-6-fluoro-1H-benzo[f]indazol-4-yl)pyrido [4′,3′:4,5]thie-no[2,3-d]pyrimidin-2-yl)oxy)methyl)-2,2-difluorocyclopropyl)meth-yl)piperazin-1-yl)ethan-1-one]
296 nM | 9280 nM | 2360 nM | 2 nM | C#Cc1c(F)ccc2cc3[nH]ncc3c(-c3nccc4c3sc3nc(OC[C@]5(CN6CC[C@@H](F)C6)CC5(F)F)nc(N5C[C@H]6CC[C@@H](C5)N6)c34)c12 [Ex-103, 4-((1R,5S)-3,8-diazabicyclo[3.2.1]octan-3-yl)-2-(((R)-2,2-difluoro-1-(((R)-3-fluoropyrrolidin-1-yl)methyl)cyclopropyl)methoxy)-8-(5-ethynyl-6-fluoro-1H-benzo[f]indazol-4-yl)pyrido[4′,3′:4,5]thie-no[2,3-d]pyrimidine]
